What was measured:
Type in all cases: in vivo
[1] = tested on: larvae of the mustard beetle (Phaedon cochleariae); assay: Phaedon larvae Test (cabbage leaf dip); settings: concentration of active compound 0.1%, after 7 days, cabbage leaves dipped
Protocol: Phaedon larvae Test [table] To produce a suitable preparation of active compound, 1 part by weight of active compound is mixed with the stated amount of solvent and the stated amount of emulsifier, and the concentrate is diluted with water to the desired concentration. Cabbage leaves (Brassica oleracea) are treated by being dipped into the preparation of active compound of the desired concentration and are populated with larvae of the mustard beetle (Phaedon cochleariae) while the leaves are still moist.

[2] = tested on: greenhouse red spider mite Tetranychus urticae; assay: Tetranychus Test (OP-resistent/dip Treatment); settings: concentration of active compound 0.1%, after 13 days, infested bean plants dipped, all stages
Protocol: Tetranychus Test (OP-resistent/dip Treatment)
(§1) To produce a suitable preparation of active compound, 1 part by weight of active compound is mixed with the stated amount of solvent and the stated amount of emulsifier, and the concentrate is diluted with water to the desired concentration.
Bean plants (Phaseolus vulgaris) which are heavily infested by all stages of the greenhouse red spider mite Tetranychus urticae are dipped into a perparation of active compound of the desired concentration.
After the desired period of time, the kill in % is determined. 100% means that all spider mites haven been killed: 0% means that none of the spider mites have been killed.

[3] = tested on: green rice leaf hoppers (Nephotettix cincticeps); assay: Nephotettix-Test (rice seedling dip); settings: concentration of active compound 0.1%, after 6 days, rice seedlings dipped
Protocol: as §1
Rice seedlings (Oryzae sativa) are treated by being dipped into the preparation of active compound of the desired concentration and are populated with the green rice leaf hoppers (Nephotettix cincticeps) while the seedlings are still moist.
After the desired period of time, the kill in % is determined. 100% means that all leaf hoppers have been killed; 0% means that none of the leaf hoppers have been killed.

[4] = tested on: peach aphids (Myzus persicae); assay: Myzus-Test (cabbage leaf dip); settings: concentration of active compound 0.1%, after 6 days, infested cabbage leaves dipped
Protocol: To produce a suitable preparation of active compound, 1 part by weight of active compound is mixed with the state amount of solvent and the stated amount of emulsifier, and the concentrate is diluted with water to the desired concentration.
Cabbage leaves (Brassica oleracea) which are heavily infested by peach aphids (Myzus persicae) are treated by being dipped into the preparation of active compound of the desired concentration.
After the desired period of time, the kill in % is determined. 100% means that all aphids have been killed; 0% means that none of the aphids have been killed.

[5] = tested on: caterpillars of the owlet moth Spodoptera frugiperda; assay: Spodoptera frugiperda Test (cabbage leaf dip); settings: concentration of active compound 0.1%, after 7 days, cabbage leaves dipped
Protocol: Spodoptera frugiperda Test
as §1
Cabbage leaves (Brassica oleracea) are treated by being dipped into the preparation of active compound of the desired concentration and are populated with caterpillars of the owlet moth Spodoptera frugiperda) while the leaves are still moist.
After the desired period of time, the kill in % is determined. 100% means that all caterpillars have been killed; 0% means that none of the caterpillars haven been killed.

Measured: kill in %

Cc1cc(C)c(C2=C(O)C3(CCCOC3)NC2=O)c(C)c1 (stereo not drawn) [Example I-1-a-1]
100%: [1] | [2] | [3]

Cc1cc(C)c(C2=C(OC(=O)C(C)(C)C)C3(CCCOC3)NC2=O)c(C)c1 (stereo not drawn) [Example I-1-b-1]
100%: [1] | [2] | [3]

CCOC(=O)OC1=C(c2c(C)cc(C)cc2C)C(=O)NC12CCCOC2 (stereo not drawn) [Example I-1-c-1]
100%: [4] | [5] | [2]

Reference: patent publication US6630594B2, “Methods of making substituted phenylketoenols” (Bayer Aktiengesellschaft, priority 1996, dated 2003)
